Results reported in PubChem BioAssay (NCI).
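Abbreviation: GI50, concentration required for 50% inhibition of growth. Definition used: TGI = concentration required for complete inhibition of growth.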

How the values were obtained:
Test in all cases: NCI anticancer screen, dose series, 384-well format
[1] = tested on: K-562 leukemia
[2] = tested on: PC-3 prostate
[3] = tested on: CCRF-CEM leukemia
[4] = tested on: SNB-19 CNS
[5] = tested on: NCI-H23 lung
[6] = tested on: MOLT-4 leukemia
[7] = tested on: SR leukemia
[8] = tested on: HL-60(TB) leukemia
[9] = tested on: HOP-92 NSCLC
[10] = tested on: RPMI-8226 leukemia
[11] = tested on: OVCAR-3 ovarian
[12] = tested on: SN12C renal
[13] = tested on: OVCAR-5 ovarian
[14] = tested on: CAKI-1 renal
[15] = tested on: SF-539 CNS
[16] = tested on: HS 578T breast
[17] = tested on: NCI-H322M lung
[18] = tested on: M14 melanoma
[19] = tested on: NCI-H226 lung
[20] = tested on: HCT-116 colon
[21] = tested on: BT-549 breast
[22] = tested on: EKVX NSCLC
[23] = tested on: MDA-MB-435 melanoma
[24] = tested on: SNB-75 CNS
[25] = tested on: KM12 colon
[26] = tested on: ACHN renal
[27] = tested on: HCT-15 colon
[28] = tested on: MALME-3M melanoma
[29] = tested on: SK-MEL-28 melanoma
[30] = tested on: SK-OV-3 ovarian
[31] = tested on: TK-10 renal
[32] = tested on: UACC-62 melanoma
[33] = tested on: HT29 colon
[34] = tested on: 786-0 renal
[35] = tested on: SW-620 colon
[36] = tested on: OVCAR-8 ovarian
[37] = tested on: U251 glioblastoma
[38] = tested on: IGROV1 ovarian
[39] = tested on: LOX IMVI melanoma
[40] = tested on: A549 NSCLC
[41] = tested on: SF-268 CNS
[42] = tested on: OVCAR-4 ovarian
[43] = tested on: NCI/ADR-RES ovarian
[44] = tested on: SF-295 CNS
[45] = tested on: UACC-257 melanoma
[46] = tested on: COLO 205 colon
[47] = tested on: MCF7 breast
[48] = tested on: UO-31 renal
[49] = tested on: NCI-H522 lung
[50] = tested on: HOP-62 NSCLC
[51] = tested on: NCI-H460 NSCLC
[52] = tested on: SK-MEL-5 melanoma
[53] = tested on: MDA-MB-468 breast
[54] = tested on: T-47D breast
[55] = tested on: MDA-MB-231 breast
[56] = tested on: RXF 393 renal
[57] = tested on: HCC-2998 colon
[58] = tested on: A498 renal
[59] = tested on: DU-145 prostate

Cc1cc(OCCOCCC(F)(F)P(=O)(O)O)ccc1CCc1cnc2c(N)nc3cc(CCC(=O)O)ccc3c2c1 was tested, and the GI50 [1] was 34.3 µM, the TGI [1] was > 100 µM and the GI50 [2] was > 100 µM. The TGI [2] was > 100 µM, the GI50 [3] was 37.7 µM and the TGI [3] was > 100 µM. The GI50 [4] was > 100 µM, the TGI [4] was > 100 µM and the GI50 [5] was 7.12 µM. For the same compound, the GI50 [6] was 58.1 µM, the TGI [6] was > 100 µM and the GI50 [7] was 9.35 µM. The TGI [7] was 29.3 µM, the GI50 [8] was > 100 µM and the TGI [8] was > 100 µM. For the same compound, the GI50 [9] was > 100 µM, the TGI [9] was > 100 µM and the GI50 [10] was 99.7 µM. The TGI [10] was > 100 µM, the GI50 [11] was > 100 µM and the TGI [11] was > 100 µM. For the same compound, the GI50 [12] was > 100 µM and the TGI [12] was > 100 µM.

Nc1nc2cc(CC[C@H]3C[C@@H](n4ccc5c(N)ncnc54)[C@H](O)[C@@H]3O)ccc2cc1Br showed a GI50 [13] of 11.4 µM, a TGI [13] of 23.8 µM and a GI50 [14] of 11.5 µM. For the same compound, the TGI [14] was 23.9 µM, the GI50 [15] was 10.6 µM and the TGI [15] was 22.5 µM. It also gave a GI50 [1] of 0.348 µM, a TGI [1] of 15.5 µM and a GI50 [2] of 11.4 µM. For the same compound, the TGI [2] was 23.7 µM, the GI50 [16] was 11.7 µM and the TGI [16] was 24.1 µM. The GI50 [17] was 0.35 µM, the TGI [17] was 5.88 µM and the GI50 [18] was 10.6 µM. The TGI [18] was 22.5 µM, the GI50 [3] was 0.3 µM and the TGI [3] was 10.4 µM. For the same compound, the GI50 [19] was 1.62 µM, the TGI [19] was 15.5 µM and the GI50 [20] was 1.66 µM. It also gave a TGI [20] of 15.5 µM, a GI50 [21] of 4.06 µM and a TGI [21] of 18.3 µM. The GI50 [22] was 1 µM, the TGI [22] was 16.4 µM and the GI50 [4] was 11.5 µM. It also gave a TGI [4] of 23.9 µM, a GI50 [23] of 12 µM and a TGI [23] of 24.5 µM. The GI50 [24] was 1.95 µM, the TGI [24] was 16.5 µM and the GI50 [25] was 3.42 µM. The TGI [25] was 20.7 µM, the GI50 [5] was 0.392 µM and the TGI [5] was 18.8 µM. For the same compound, the GI50 [26] was 13.4 µM, the TGI [26] was 26.5 µM and the GI50 [27] was 9.52 µM. The TGI [27] was 21.8 µM, the GI50 [28] was 10.2 µM and the TGI [28] was 21.9 µM. The GI50 [29] was 18.2 µM, the TGI [29] was 32.2 µM and the GI50 [30] was 12 µM. The TGI [30] was 24.5 µM, the GI50 [6] was < 0.01 µM and the GI50 [31] was 12.6 µM. For the same compound, the TGI [31] was 25.4 µM, the GI50 [32] was 11.5 µM and the TGI [32] was 23.7 µM. The GI50 [33] was 1.85 µM, the TGI [33] was 10.4 µM and the GI50 [8] was 13.8 µM. It also gave a TGI [8] of 27 µM, a GI50 [34] of 11.5 µM and a TGI [34] of 23.7 µM. For the same compound, the GI50 [35] was 11.8 µM, the TGI [35] was 24.1 µM and the GI50 [36] was 1.46 µM. It also gave a TGI [36] of 14.3 µM, a GI50 [9] of 12.4 µM and a TGI [9] of 24.9 µM. For the same compound, the GI50 [10] was 2.14 µM, the TGI [10] was 15.4 µM and the GI50 [37] was 5.85 µM. For the same compound, the TGI [37] was 20.3 µM, the GI50 [38] was 6.55 µM and the TGI [38] was 20.8 µM. It also gave a GI50 [39] of 0.579 µM, a TGI [39] of 12.2 µM and a GI50 [40] of 0.644 µM. The TGI [40] was 15.8 µM, the GI50 [41] was < 0.01 µM and the TGI [41] was 1.44 µM. The GI50 [42] was 0.4 µM, the TGI [42] was 19 µM and the GI50 [43] was 5.73 µM. The TGI [43] was 18.6 µM, the GI50 [44] was 12.4 µM and the TGI [44] was 25.2 µM. The GI50 [45] was 1.42 µM, the TGI [45] was 11.5 µM and the GI50 [46] was 4.18 µM. For the same compound, the TGI [46] was 19.5 µM, the GI50 [47] was 0.983 µM and the TGI [47] was 15.8 µM. It also gave a GI50 [48] of 11.9 µM, a TGI [48] of 24.4 µM and a GI50 [49] of 11 µM. It also gave a TGI [49] of 23 µM, a GI50 [50] of 0.37 µM and a TGI [50] of 12.1 µM. The GI50 [51] was < 0.01 µM, the TGI [51] was 1.08 µM and the GI50 [52] was 0.309 µM. The TGI [52] was 2.33 µM, the GI50 [53] was 0.0253 µM and the TGI [53] was 0.433 µM. The GI50 [54] was < 0.01 µM, the TGI [54] was 2.59 µM and the GI50 [55] was 3.2 µM. For the same compound, the TGI [55] was 20.5 µM, the GI50 [56] was 0.246 µM and the TGI [56] was 16.3 µM. The GI50 [57] was 10.5 µM, the TGI [57] was 22.5 µM and the GI50 [58] was 2.11 µM. For the same compound, the TGI [58] was 11.8 µM, the GI50 [59] was 13.4 µM and the TGI [59] was 26.5 µM. For the same compound, the GI50 [11] was 2.88 µM, the TGI [11] was 13.8 µM and the GI50 [12] was 11.5 µM. It also gave a TGI [12] of 23.8 µM.
